The values that follow come from patent US8574563B2 (Bristol-Myers Squibb Company, priority 2006, dated 2013).

Molecules are shown by their SMILES.

One may read the EC50 as the concentration giving half of the maximal effect.

One test relates to HCV 1b-377-neo replicon cells. In words: HCV replicon assay, HCV 1b-377-neo replicon cells (1b FRET). The test is classed as cell-based, Hepatitis C virus genotype 1b. To be noted: HCV 1b replicon, FRET; read-out: 1b Fret (EC50 μM). In outline:
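Compounds tested in HCV genotype 1b-377-neo replicon cells with a FRET read-out. Cells resistant to a reference NS5A inhibitor through a Y2065H NS5A mutation were run alongside wild-type cells.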
On the technique in general: Replicon systems follow genome replication, usually without infectious particles.
As for `CC(C)[C@H](NS(=O)(=O)C(C)C)C(=O)N1CCC[C@H]1c1ncc(-c2ccc(-c3ccc(-c4cnc([C@@H]5CCCN5C(=O)[C@@H](NS(=O)(=O)N(C)C)C(C)C)[nH]4)cc3)cc2)[nH]1` [Example F65, N—((S)-1-((S)-2-(5-(4′-(2-((S)-1-((S)-2-(N,N-dimethylsulfamoylamino)-3-methylbutanoyl)pyrrolidin-2-yl)-1H-imidazol-5-yl)biphenyl-4-yl)-1H-imidazol-2-yl)pyrrolidin-1-yl)-3-methyl-1-oxobutan-2-yl)propane-2-sulfonamide], the EC50 worked out at 210 nM.

The same test, now with this note: HCV 1b-377-neo replicon cells; HCV 1b genotype; read-out: EC50 range against HCV 1b (Table 2, Range).
With `CC(C)[C@H](NS(=O)(=O)C(C)C)C(=O)N1CCC[C@H]1c1ncc(-c2ccc(-c3ccc(-c4cnc([C@@H]5CCCN5C(=O)[C@@H](NS(=O)(=O)N(C)C)C(C)C)[nH]4)cc3)cc2)[nH]1` [Example F65, N—((S)-1-((S)-2-(5-(4′-(2-((S)-1-((S)-2-(N,N-dimethylsulfamoylamino)-3-methylbutanoyl)pyrrolidin-2-yl)-1H-imidazol-5-yl)biphenyl-4-yl)-1H-imidazol-2-yl)pyrrolidin-1-yl)-3-methyl-1-oxobutan-2-yl)propane-2-sulfonamide], the EC50 lay in the range of 100 to 999 nM.

Staying with this test, now noted: Hepatitis C virus, HCV 1b-377-neo replicon cells; HCV 1b genotype; read-out: EC50 range against HCV 1b (Table 2, Range).
For `COC(=O)N[C@H](C(=O)N1CCC[C@H]1c1nc(-c2ccc(-c3ccc(-c4c[nH]c([C@@H]5CCCN5C(=O)[C@@H](NC5CCOCC5)C(C)C)n4)cc3)cc2)c[nH]1)C(C)C` [Example F49, methyl ((1S)-2-methyl-1-(((2S)-2-(4-(4′-(2-((2S)-1-(N-(tetrahydro-2H-pyran-4-yl)-L-valyl)-2-pyrrolidinyl)-1H-imidazol-4-yl)-4-biphenylyl)-1H-imidazol-2-yl)-1-pyrrolidinyl)carbonyl)propyl)carbamate], the EC50 fell in the range of 1 to 99 nM.

Turning to `COC(=O)N[C@H](C(=O)N1CCC[C@H]1c1nc(-c2ccc(-c3ccc(-c4c[nH]c([C@@H]5CCCN5C(=O)CNC5CCOCC5)n4)cc3)cc2)c[nH]1)C(C)C` [Example F51, methyl ((1S)-2-methyl-1-(((2S)-2-(4-(4′-(2-((2S)-1-(N-(tetrahydro-2H-pyran-4-yl)glycyl)-2-pyrrolidinyl)-1H-imidazol-4-yl)-4-biphenylyl)-1H-imidazol-2-yl)-1-pyrrolidinyl)carbonyl)propyl)carbamate], the EC50 fell in the range of 0.001 to 0.999 nM.

As to `COC(=O)N[C@H](C(=O)N1CCC[C@H]1c1nc(-c2ccc(-c3ccc(-c4c[nH]c([C@@H]5CCCN5C(=O)[C@H](NC5CCOCC5)C(C)C)n4)cc3)cc2)c[nH]1)C(C)C` [Example F52, methyl ((1S)-2-methyl-1-(((2S)-2-(4-(4′-(2-((2S)-1-(N-(tetrahydro-2H-pyran-4-yl)-D-valyl)-2-pyrrolidinyl)-1H-imidazol-4-yl)-4-biphenylyl)-1H-imidazol-2-yl)-1-pyrrolidinyl)carbonyl)propyl)carbamate], the EC50 lay within 0.001 to 0.999 nM.

Regarding `COC(=O)N[C@H](C(=O)N1CCC[C@H]1c1nc(-c2ccc(-c3ccc(-c4c[nH]c([C@@H]5CCCN5C(=O)[C@@H](C)NC5CCOCC5)n4)cc3)cc2)c[nH]1)C(C)C` [Example F53, methyl ((1S)-2-methyl-1-(((2S)-2-(4-(4′-(2-((2S)-1-(N-(tetrahydro-2H-pyran-4-yl)-D-alanyl)-2-pyrrolidinyl)-1H-imidazol-4-yl)-4-biphenylyl)-1H-imidazol-2-yl)-1-pyrrolidinyl)carbonyl)propyl)carbamate], the EC50 was in the range of 0.001 to 0.999 nM.

As to `COC(=O)N[C@H](C(=O)N1CCC[C@H]1c1nc(-c2ccc(-c3ccc(-c4c[nH]c([C@@H]5CCCN5C(=O)[C@@H](NC(=O)O[C@H]5CCOC5)C(C)C)n4)cc3)cc2)c[nH]1)C(C)C` [Example F54, (3S)-tetrahydro-3-furanyl ((1S)-1-(((2S)-2-(4-(4′-(2-((2S)-1-(N-(methoxycarbonyl)-L-valyl)-2-pyrrolidinyl)-1H-imidazol-4-yl)-4-biphenylyl)-1H-imidazol-2-yl)-1-pyrrolidinyl)carbonyl)-2-methylpropyl)carbamate], the EC50 is 0.001 to 0.999 nM.

As for `COC(=O)N[C@H](C(=O)N1CCC[C@H]1c1nc(-c2ccc(-c3ccc(-c4c[nH]c([C@@H]5CCCN5C(=O)[C@@H](NC(=O)OC5CCOCC5)C(C)C)n4)cc3)cc2)c[nH]1)C(C)C` [Example F55, tetrahydro-2H-pyran-4-yl ((1S)-1-(((2S)-2-(4-(4′-(2-((2S)-1-(N-(methoxycarbonyl)-L-valyl)-2-pyrrolidinyl)-1H-imidazol-4-yl)-4-biphenylyl)-1H-imidazol-2-yl)-1-pyrrolidinyl)carbonyl)-2-methylpropyl)carbamate], the EC50 was in the range of 0.001 to 0.999 nM.

As for `COC(=O)N[C@H](C(=O)N1CCC[C@H]1c1nc(-c2ccc(-c3ccc(-c4c[nH]c([C@@H]5CCCN5C(=O)[C@@H](NC(=O)O[C@@H]5CCOC5)C(C)C)n4)cc3)cc2)c[nH]1)C(C)C` [Example F56, (3R)-tetrahydro-3-furanyl ((1S)-1-(((2S)-2-(4-(4′-(2-((2S)-1-(N-(methoxycarbonyl)-L-valyl)-2-pyrrolidinyl)-1H-imidazol-4-yl)-4-biphenylyl)-1H-imidazol-2-yl)-1-pyrrolidinyl)carbonyl)-2-methylpropyl)carbamate], the 50% effective concentration (EC50) lay within 0.001 to 0.999 nM.

As to `COC(=O)N[C@H](C(=O)N1CCC[C@H]1c1nc(-c2ccc(-c3ccc(-c4cnc([C@@H]5CCCN5C(=O)[C@H](NC(=O)OC)C5CCOCC5)[nH]4)cc3)cc2)c[nH]1)C(C)C` [Example F57, methyl ((1S)-1-(((2S)-2-(4-(4′-(2-((2S)-1-((2R)-2-((methoxycarbonyl)amino)-2-(tetrahydro-2H-pyran-4-yl)acetyl)-2-pyrrolidinyl)-1H-imidazol-5-yl)-4-biphenylyl)-1H-imidazol-2-yl)-1-pyrrolidinyl)carbonyl)-2-methylpropyl)carbamate], the concentration giving a half-maximal response (EC50) is 0.001 to 0.999 nM.

As for `COC(=O)N[C@H](C(=O)N1CCC[C@H]1c1nc(-c2ccc(-c3ccc(-c4cnc([C@@H]5CCCN5C(=O)[C@@H](NC(=O)OC)C5CCOCC5)[nH]4)cc3)cc2)c[nH]1)C(C)C` [Example F58, methyl ((1S)-1-(((2S)-2-(4-(4′-(2-((2S)-1-((2S)-2-((methoxycarbonyl)amino)-2-(tetrahydro-2H-pyran-4-yl)acetyl)-2-pyrrolidinyl)-1H-imidazol-5-yl)-4-biphenylyl)-1H-imidazol-2-yl)-1-pyrrolidinyl)carbonyl)-2-methylpropyl)carbamate], the EC50 lay in the range of 0.001 to 0.999 nM.

Regarding `CC(=O)N[C@H](C(=O)N1CCC[C@H]1c1nc(-c2ccc(-c3ccc(-c4c[nH]c([C@@H]5CCCN5C(=O)[C@@H](NC(C)=O)C(C)C)n4)cc3)cc2)c[nH]1)C(C)C` [Example F60, N-((1S)-1-(((2S)-2-(4-(4′-(2-((2S)-1-((2S)-2-acetamido-3-methylbutanoyl)-2-pyrrolidinyl)-1H-imidazol-4-yl)-4-biphenylyl)-1H-imidazol-2-yl)-1-pyrrolidinyl)carbonyl)-2-methylpropyl)acetamide], the half-maximal effective concentration (EC50) was in the range of 0.001 to 0.999 nM.

In the case of `CCC(=O)N[C@H](C(=O)N1CCC[C@H]1c1nc(-c2ccc(-c3ccc(-c4c[nH]c([C@@H]5CCCN5C(=O)[C@@H](NC(=O)CC)C(C)C)n4)cc3)cc2)c[nH]1)C(C)C` [Example F61, N-((1S)-2-methyl-1-(((2S)-2-(4-(4′-(2-((2S)-1-((2S)-3-methyl-2-(propionylamino)butanoyl)-2-pyrrolidinyl)-1H-imidazol-4-yl)-4-biphenylyl)-1H-imidazol-2-yl)-1-pyrrolidinyl)carbonyl)propyl)propanamide], the 50% effective concentration (EC50) lay within 1 to 99 nM.

As to `COCC(=O)N[C@H](C(=O)N1CCC[C@H]1c1nc(-c2ccc(-c3ccc(-c4c[nH]c([C@@H]5CCCN5C(=O)[C@@H](NC(=O)COC)C(C)C)n4)cc3)cc2)c[nH]1)C(C)C` [Example F62, 2-methoxy-N-((1S)-1-(((2S)-2-(4-(4′-(2-((2S)-1-((2S)-2-((methoxyacetyl)amino)-3-methylbutanoyl)-2-pyrrolidinyl)-1H-imidazol-4-yl)-4-biphenylyl)-1H-imidazol-2-yl)-1-pyrrolidinyl)carbonyl)-2-methylpropyl)acetamide], the EC50 lay in the range of 1 to 99 nM.

For the compound `CNC(=O)N[C@H](C(=O)N1CCC[C@H]1c1nc(-c2ccc(-c3ccc(-c4c[nH]c([C@@H]5CCCN5C(=O)[C@@H](NC(=O)NC)C(C)C)n4)cc3)cc2)c[nH]1)C(C)C` [Example F63, 1-methyl-3-((1S)-2-methyl-1-(((2S)-2-(4-(4′-(2-((2S)-1-(N-(methylcarbamoyl)-L-valyl)-2-pyrrolidinyl)-1H-imidazol-4-yl)-4-biphenylyl)-1H-imidazol-2-yl)-1-pyrrolidinyl)carbonyl)propyl)urea], the EC50 was 0.001 to 0.999 nM.

Turning to `CCNC(=O)N[C@H](C(=O)N1CCC[C@H]1c1nc(-c2ccc(-c3ccc(-c4c[nH]c([C@@H]5CCCN5C(=O)[C@@H](NC(=O)NCC)C(C)C)n4)cc3)cc2)c[nH]1)C(C)C` [Example F64, 1-ethyl-3-((1S)-1-(((2S)-2-(4-(4′-(2-((2S)-1-((2S)-2-((ethylcarbamoyl)amino)-3-methylbutanoyl)-2-pyrrolidinyl)-1H-imidazol-4-yl)-4-biphenylyl)-1H-imidazol-2-yl)-1-pyrrolidinyl)carbonyl)-2-methylpropyl)urea], the EC50 was in the range of 1 to 99 nM.

For the compound `CC(C)[C@H](NS(C)(=O)=O)C(=O)N1CCC[C@H]1c1nc(-c2ccc(-c3ccc(-c4c[nH]c([C@@H]5CCCN5C(=O)[C@@H](NS(C)(=O)=O)C(C)C)n4)cc3)cc2)c[nH]1` [Example F66, N-((1S)-2-methyl-1-(((2S)-2-(4-(4′-(2-((2S)-1-((2S)-3-methyl-2-((methylsulfonyl)amino)butanoyl)-2-pyrrolidinyl)-1H-imidazol-4-yl)-4-biphenylyl)-1H-imidazol-2-yl)-1-pyrrolidinyl)carbonyl)propyl)methanesulfonamide], the EC50 is 1 to 99 nM.

On to `CCS(=O)(=O)N[C@H](C(=O)N1CCC[C@H]1c1nc(-c2ccc(-c3ccc(-c4c[nH]c([C@@H]5CCCN5C(=O)[C@@H](NS(=O)(=O)CC)C(C)C)n4)cc3)cc2)c[nH]1)C(C)C` [Example F67, N-((1S)-1-(((2S)-2-(4-(4′-(2-((2S)-1-((2S)-2-((ethylsulfonyl)amino)-3-methylbutanoyl)-2-pyrrolidinyl)-1H-imidazol-4-yl)-4-biphenylyl)-1H-imidazol-2-yl)-1-pyrrolidinyl)carbonyl)-2-methylpropyl)ethanesulfonamide], for which the EC50 lay in the range of 1 to 99 nM.
